ChEMBL document CHEMBL6074626, “Recent advances in triazole synthesis via click chemistry and their pharmacological applications: A review” (Bioorg Med Chem Lett, 2024)
In brackets after ≈: the same amount, converted by molar mass.

Key:
[1] = system: Staphylococcus aureus; assay: microbe, parasite or virus in culture; settings: NCTC 13616, 20 h
Description: Antibacterial activity against methicillin-resistant Staphylococcus aureus NCTC 13616 assessed as reduction in bacterial growth incubated for 20 hrs by broth micro-dilution method

[2] = system: Bacillus subtilis; assay: microbe, parasite or virus in culture; settings: ATCC 6633, 20 h
Description: Antibacterial activity against Bacillus subtilis ATCC 6633 assessed as bacterial growth inhibition measured for 20 hrs by micro-broth dilution method

[3] = system: Bacillus cereus; assay: microbe, parasite or virus in culture; settings: ATCC 14579
Description: Antibacterial activity against Bacillus cereus ATCC 14579 assessed as reduction in bacterial growth incubated for 18 to 24 hrs by broth microdilution method

[4] = system: Klebsiella pneumoniae; assay: microbe, parasite or virus in culture; settings: ATCC 43816, 20 h
Description: Antimicrobial activity against Klebsiella pneumoniae ATCC 43816 assessed as reduction in bacterial growth incubated for 20 hrs by broth microdilution analysis

[5] = system: Escherichia coli; assay: microbe, parasite or virus in culture; settings: ATCC 8739, 20 h
Description: Antimicrobial activity against Escherichia coli ATCC 8739 assessed as reduction in bacterial growth incubated for 20 hrs by broth microdilution analysis

[6] = system: Proteus vulgaris; assay: microbe, parasite or virus in culture; settings: ATCC 13315, 24 h
Description: Antimicrobial activity against Proteus vulgaris ATCC 13315 assessed as microbial growth inhibition incubated for 24 hrs by broth microdilution method

[7] = target: T1, Prostaglandin G/H synthase 1 (Ovis aries, UniProt P05979); assay: Inhibition of ovine COX-1
T1 sequence (P05979 whole entry): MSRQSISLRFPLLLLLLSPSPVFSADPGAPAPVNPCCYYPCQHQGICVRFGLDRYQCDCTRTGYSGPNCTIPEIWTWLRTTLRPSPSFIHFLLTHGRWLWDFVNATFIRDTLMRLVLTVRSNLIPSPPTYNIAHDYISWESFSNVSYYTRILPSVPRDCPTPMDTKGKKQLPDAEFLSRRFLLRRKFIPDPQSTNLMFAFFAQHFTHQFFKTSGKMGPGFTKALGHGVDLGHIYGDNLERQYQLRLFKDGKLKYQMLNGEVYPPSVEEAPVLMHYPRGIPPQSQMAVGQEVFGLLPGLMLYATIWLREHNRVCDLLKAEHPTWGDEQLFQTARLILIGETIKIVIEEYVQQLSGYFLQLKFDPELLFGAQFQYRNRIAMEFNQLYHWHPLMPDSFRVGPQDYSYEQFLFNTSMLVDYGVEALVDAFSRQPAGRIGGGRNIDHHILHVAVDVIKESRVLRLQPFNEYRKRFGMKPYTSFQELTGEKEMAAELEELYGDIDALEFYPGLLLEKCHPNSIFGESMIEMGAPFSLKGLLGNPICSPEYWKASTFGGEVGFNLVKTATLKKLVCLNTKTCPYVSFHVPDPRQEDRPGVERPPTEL

[8] = target: T2, Prostaglandin G/H synthase 2 (Homo sapiens, UniProt P35354); assay: Inhibition of human recombinant COX-2
T2 sequence (P35354 whole entry): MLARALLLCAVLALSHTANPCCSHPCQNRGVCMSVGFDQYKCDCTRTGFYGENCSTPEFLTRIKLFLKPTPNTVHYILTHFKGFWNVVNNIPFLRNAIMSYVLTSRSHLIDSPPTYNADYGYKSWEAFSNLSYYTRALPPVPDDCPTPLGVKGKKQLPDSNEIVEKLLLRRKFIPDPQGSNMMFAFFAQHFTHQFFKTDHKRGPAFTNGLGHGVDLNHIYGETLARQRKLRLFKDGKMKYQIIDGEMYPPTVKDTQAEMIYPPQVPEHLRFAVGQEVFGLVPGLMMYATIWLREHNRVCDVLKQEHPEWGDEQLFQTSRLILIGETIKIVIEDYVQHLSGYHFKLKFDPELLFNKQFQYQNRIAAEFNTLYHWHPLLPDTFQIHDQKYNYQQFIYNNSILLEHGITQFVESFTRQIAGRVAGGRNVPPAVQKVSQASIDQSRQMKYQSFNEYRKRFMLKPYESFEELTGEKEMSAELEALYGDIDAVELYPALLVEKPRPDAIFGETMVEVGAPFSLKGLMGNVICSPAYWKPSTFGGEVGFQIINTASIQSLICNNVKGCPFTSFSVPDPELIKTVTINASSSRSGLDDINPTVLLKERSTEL

[9] = Antioxidant activity assessed as DPPH radical scavenging activity incubated for 30 mins

Row | SMILES | MIC [1] [µg/mL] | MIC [2] [µg/mL] | MIC [3] [µg/mL] | MIC [4] [µg/mL] | MIC [5] [µg/mL] | MIC [6] [µg/mL] | IC50 [7] [µM] | IC50 [8] [µM] | IC50 [9] [µM]
1 | CC(C)Cc1ccc(C(C)C(=O)c2ccc(OCc3cn(-c4ccc(Br)cc4)nn3)cc2O)cc1 (centres undefined) | 12 (≈ 22.5 µM) | 12 (≈ 22.5 µM) | 12 (≈ 22.5 µM) | 12 (≈ 22.5 µM) | 12 (≈ 22.5 µM) | 12 (≈ 22.5 µM) | – | – | –
2 | COc1ccc(/C=C/C(=O)c2cc(-n3cc(-c4ccccc4)nn3)ccc2O)cc1 | – | – | – | – | – | – | 7.4 | 0.037 | –
3 | COc1cc(/C=C/C(=O)c2cc(-n3cc(-c4ccccc4)nn3)ccc2O)cc(OC)c1OC | – | – | – | – | – | – | 7.4 | 0.037 | –
4 | COc1ccc(/C=C/C(=O)c2cc(-n3cc(CN4C(=O)C(=O)c5ccccc54)nn3)ccc2O)cc1OC | – | – | – | – | – | – | 7.4 | 0.037 | –
5 | COc1cc(/C=C/C(=O)c2cc(-n3cc(CN4C(=O)C(=O)c5ccccc54)nn3)ccc2O)cc(OC)c1OC | – | – | – | – | – | – | 7.4 | 0.037 | –
6 | O=C(/C=C/c1ccccc1)c1cc(-n2cc(CN3C(=O)C(=O)c4ccccc43)nn2)ccc1O | – | – | – | – | – | – | 7.4 | 0.037 | –
7 | CN(C)C(=O)c1ccc(/C=C/C(=O)c2cc(-n3cc(CN4C(=O)C(=O)c5ccccc54)nn3)ccc2O)cc1 | – | – | – | – | – | – | 7.4 | 0.037 | –
8 | CC(C)Cc1ccc(C(C)C(=O)c2ccc(OCc3cn(-c4ccc([N+](=O)[O-])cc4)nn3)cc2O)cc1 (centres undefined) | 12 (≈ 24 µM) | 12 (≈ 24 µM) | 12 (≈ 24 µM) | 12 (≈ 24 µM) | 12 (≈ 24 µM) | 12 (≈ 24 µM) | – | – | –
9 | CCCCCCCCn1cc(COc2ccc(C(=O)C(C)c3ccc(CC(C)C)cc3)c(O)c2)nn1 (centres undefined) | 12 (≈ 24.4 µM) | 12 (≈ 24.4 µM) | 12 (≈ 24.4 µM) | 12 (≈ 24.4 µM) | 12 (≈ 24.4 µM) | 12 (≈ 24.4 µM) | – | – | –
10 | CCCCc1cn(CCCOc2ccc(-c3cc(=O)c4ccccc4o3)cc2)nn1 | – | – | – | – | – | – | – | – | 29.7
11 | CC(C)Cc1ccc(C(C)C(=O)c2ccc(OCc3cn(C4CCCCC4)nn3)cc2O)cc1 (centres undefined) | 12 (≈ 26 µM) | 12 (≈ 26 µM) | 12 (≈ 26 µM) | 12 (≈ 26 µM) | 12 (≈ 26 µM) | 12 (≈ 26 µM) | – | – | –
12 | CC(C)Cc1ccc(C(C)C(=O)c2ccc(OCc3cn(-c4ccc(Cl)cc4)nn3)cc2O)cc1 (centres undefined) | 12 (≈ 24.5 µM) | 12 (≈ 24.5 µM) | 12 (≈ 24.5 µM) | 12 (≈ 24.5 µM) | 12 (≈ 24.5 µM) | 12 (≈ 24.5 µM) | – | – | –
13 | CCCCCc1ccc(-c2cn(CCCOc3ccc(-c4cc(=O)c5ccccc5o4)cc3)nn2)cc1 | – | – | – | – | – | – | – | – | 36
14 | CC(C)Cc1ccc(C(C)C(=O)c2ccc(OCc3cn(C4CCCC4)nn3)cc2O)cc1 (centres undefined) | 12 (≈ 26.8 µM) | 12 (≈ 26.8 µM) | 12 (≈ 26.8 µM) | 12 (≈ 26.8 µM) | 12 (≈ 26.8 µM) | 12 (≈ 26.8 µM) | – | – | –
15 | O=C(/C=C/C=C/c1ccccc1)c1cc(-n2cc(CN3C(=O)C(=O)c4ccccc43)nn2)ccc1O | – | – | – | – | – | – | 7.4 | 0.037 | –
16 | CCCCCCn1cc(COc2ccc(C(=O)C(C)c3ccc(CC(C)C)cc3)c(O)c2)nn1 (centres undefined) | 12 (≈ 25.9 µM) | 12 (≈ 25.9 µM) | 12 (≈ 25.9 µM) | 12 (≈ 25.9 µM) | 12 (≈ 25.9 µM) | 12 (≈ 25.9 µM) | – | – | –
17 | CC(C)Cc1ccc(C(C)C(=O)c2ccc(OCc3cn(-c4ccccc4Cl)nn3)cc2O)cc1 (centres undefined) | 12 (≈ 24.5 µM) | 12 (≈ 24.5 µM) | 12 (≈ 24.5 µM) | 12 (≈ 24.5 µM) | 12 (≈ 24.5 µM) | 12 (≈ 24.5 µM) | – | – | –
18 | COc1ccc(/C=C/C(=O)c2cc(-n3cc(-c4ccccc4)nn3)ccc2O)cc1OC | – | – | – | – | – | – | 7.4 | 0.037 | –
19 | O=C(/C=C/c1ccc(Cl)cc1)c1cc(-n2cc(-c3ccccc3)nn2)ccc1O | – | – | – | – | – | – | 7.4 | 0.037 | –
20 | CCCCCCCCCCCCn1cc(COc2ccc(C(=O)C(C)c3ccc(CC(C)C)cc3)c(O)c2)nn1 (centres undefined) | 12 (≈ 21.9 µM) | 12 (≈ 21.9 µM) | 12 (≈ 21.9 µM) | 12 (≈ 21.9 µM) | 12 (≈ 21.9 µM) | 12 (≈ 21.9 µM) | – | – | –
